This is an account of results in patent publication US7601737B2, “Isotopically substituted proton pump inhibitors” (priority 2005, dated 2009).

Molecules are shown by their SMILES.

As a reminder, the hepatocyte CLint is the rate of metabolic loss divided by the concentration.

For series [1], the system named is human cryopreserved hepatocytes. Kind of series: in vitro. Conditions: human, hepatocytes. The source says:
(§1) 5-hydroxy-omeprazole was quantified using LC-MS/MS.

The next series can be described thus: in vitro. Conditions: human, hepatocytes.
Text: as §1

Another series addresses T1, CYP2C19 (Homo sapiens, UniProt P33261).
T1 construct: purchased Cypex, Dundee, UK
The series is described as follows: Metabolic clearance in recombinant human cytochrome P450 CYP2C19. Type of series: in vitro ADME. Conditions: recombinant P450 0.5 nmol/mL, disappearance of parent compound; lower limit of assay resolution 17.6 μl/min/nmol P450. As to the method: Incubations were carried out in triplicate.

Another series concerns the target CYP3A4 (Homo sapiens, UniProt P08684). The series is described as follows: Metabolic clearance in recombinant human cytochrome P450 CYP3A4. Conditions: recombinant P450 1 nmol/mL, disappearance of parent compound; lower limit of assay resolution 17.6 μl/min/nmol P450.
Series [2] in a line: Metabolisation in liver microsomes (mouse). The conditions noted are these: for Percent of compound metabolized: 10 μM, 90 minutes incubation. It is filed as in vitro ADME. As to the method:
(§2) Pantoprazole or examples 1 or 2 (10 μM each) were incubated with liver microsomes (source: all from GenTest except Mini Pig from TEBU),incubation in 1 mg/ml protein, 100 mM Tris-HCl, pH 7.4, 1 mM NADPH2). Reaction was terminated after 90 minutes by liquid nitrogen, the parent compound was detected by HPLC (10 mM KH2PO4, pH 7.4, acetonitril gradient 20-44%).
(Liver microsomes are a subcellular fraction often used to study metabolism.)

The nature of series [3]: Metabolisation in liver microsomes (dog). Type of series: in vitro ADME. Conditions: for Percent of compound metabolized: 10 μM, 90 minutes incubation. As to the method: as §2
Series [4] in a line: Metabolisation in liver microsomes (mini pig). Type of series: in vitro ADME. The conditions noted are these: for Percent of compound metabolized: 10 μM, 90 minutes incubation. As to the method: as §2
A short description of series [5]: Metabolisation in liver microsomes (monkey). Type of series: in vitro ADME. The conditions noted are these: for Percent of compound metabolized: 10 μM, 90 minutes incubation. As to the method:
as §2

Series [6] in a line: Metabolisation in liver microsomes (guinea pig). It is filed as in vitro ADME. Conditions: Guinee pig liver microsomes; for Percent of compound metabolized: 10 μM, 90 minutes incubation. Here is the method:
as §2

Series [7] in a line: Metabolisation in liver microsomes (rat). Type of series: in vitro ADME. Conditions: for Percent of compound metabolized: 10 μM, 90 minutes incubation. Here is the method: as §2
A short description of series [8]: Metabolisation in liver microsomes (human). It is filed as in vitro ADME. The conditions noted are these: for Percent of compound metabolized: 10 μM, 90 minutes incubation. Here is the method:
as §2

For series [9], the system named is human cryopreserved hepatocytes. The conditions noted are these: human, 60 min.
Protocol: Following the evaluation of the metabolic clearance of the compounds according to the invention via P450 enzymes, the formation kinetics of the main metabolite identified in humans, i.e. M2 (5-(difluoromethoxy)-2-[[(3-methoxy-4-sulfate-2-pyridyl)-methyl]sulfinyl]-1H-benzimidazole) was determined. Because the generation of M2 involves the oxidation of the 4-methoxy-pyridyl group by CYP2C19 and subsequent conjugation with 3′-phosphoadenosine-5′-phosphosulfate (PAPS) by an unidentified sulphotransferase, human cryopreserved hepatocytes were used since both phase I and phase II enzymes are functional in this in vitro system.
M2 formation rate under these conditions was linear up to 60 min. The M2 formation rate was determined at nine different compound concentrations (0, 0.5, 1.0, 2.5, 5.0, 10.0, 25.0, 50.0 and 100 μMol/L) incubated in duplicate for 60 min at 37° C. M2 was quantified using LC-MS/MS. M2 isolated from human urine was used as an external standard. The concentration to reach the half-maximal formation rate (KM-value) and the maximal formation rate (Vmax) were obtained by non-linear regression analysis using the Michaelis-Menten equation. The intrinsic clearance (Clint) was obtained dividing Vmax over KM.

T1 sequence (P33261 whole entry): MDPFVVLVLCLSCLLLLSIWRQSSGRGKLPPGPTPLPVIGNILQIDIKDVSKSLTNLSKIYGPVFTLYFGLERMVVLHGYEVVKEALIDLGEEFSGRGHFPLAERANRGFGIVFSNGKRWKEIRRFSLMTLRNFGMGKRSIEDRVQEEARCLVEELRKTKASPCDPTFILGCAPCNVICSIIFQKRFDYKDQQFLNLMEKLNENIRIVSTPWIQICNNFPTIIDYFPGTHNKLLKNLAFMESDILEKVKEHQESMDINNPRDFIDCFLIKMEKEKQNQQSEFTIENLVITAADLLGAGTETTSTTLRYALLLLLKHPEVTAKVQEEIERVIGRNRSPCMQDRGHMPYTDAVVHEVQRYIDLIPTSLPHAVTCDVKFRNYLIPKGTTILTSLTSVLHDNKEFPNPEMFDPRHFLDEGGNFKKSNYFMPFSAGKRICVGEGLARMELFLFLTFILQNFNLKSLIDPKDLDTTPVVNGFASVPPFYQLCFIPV
CYP3A4, sequence (P08684 whole entry): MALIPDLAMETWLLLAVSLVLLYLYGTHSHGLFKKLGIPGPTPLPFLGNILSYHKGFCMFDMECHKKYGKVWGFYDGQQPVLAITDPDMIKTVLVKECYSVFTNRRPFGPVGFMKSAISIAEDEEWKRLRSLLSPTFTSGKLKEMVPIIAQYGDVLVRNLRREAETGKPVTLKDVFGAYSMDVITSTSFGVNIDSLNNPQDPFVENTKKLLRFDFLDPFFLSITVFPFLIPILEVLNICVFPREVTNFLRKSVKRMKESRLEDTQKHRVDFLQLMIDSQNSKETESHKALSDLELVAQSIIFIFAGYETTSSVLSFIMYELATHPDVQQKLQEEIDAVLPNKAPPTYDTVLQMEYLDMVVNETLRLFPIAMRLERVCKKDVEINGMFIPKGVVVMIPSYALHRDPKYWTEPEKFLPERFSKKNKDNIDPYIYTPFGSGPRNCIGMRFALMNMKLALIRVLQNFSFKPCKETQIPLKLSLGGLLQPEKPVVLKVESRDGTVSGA
Protocol for CYP3A4: In order to evaluate the properties of the compounds according to the invention the compounds' intrinsic clearances in recombinant human cytochrome P450 (CYP) isoenzymes CYP1A2, CYP2C8, CYP2C19, CYP2D6, CYP3A4, and CYP3A5 were determined.
Incubations were carried out in triplicate. […] The intrinsic clearance was determined based on the rate of disappearance of parent compound. Pantoprazole, omeprazole and the deuterated analogues were determined by HPLC-UV. The lower limit of assay resolution based on experimental variability was 17.6 μl/min/nmol P450.

On to `COc1ccc2[nH]c([S+]([O-])Cc3ncc(C)c(OC)c3C)nc2c1` (racemic) [rac. Omeprazole, 5-methoxy-2-[(4-methoxy-3,5-dimethyl-2-pyridinyl)methylsulphinyl]-1H-benzimidazole, reference compound], for which, in series [1], the “% Σ Clint rac. Omeprazole” value came out at 100%. For the same compound, in “in vitro”, the hepatocyte CLint was found to be 2 µL/min/1e6 cells. Besides, the “Contribution of CYP2C19 to the oxidative metabolism” value on CYP2C19 is reported as “contribute to the oxidative metabolism”. For the same compound, the “Contribution of CYP3A4 to the oxidative metabolism” value at CYP3A4 is reported as “contribute to the oxidative metabolism”.

With `[2H]C([2H])([2H])Oc1ccnc(C[S@+]([O-])c2nc3cc(OC(F)F)ccc3[nH]2)c1OC` [Example 2, (S)(−)-5-Difluoromethoxy-2-[(3-methoxy-4-trideuteriomethoxy-2-pyridinyl)methylsulfinyl]-1H-benzimidazole], the “Percent of compound metabolized” value in [2] is given as 17%; in series [3], 10%; in [4], 19%; in [5] it was 35%; in series [6], 54%; in [7], 17%. Moreover, the “Percent of compound metabolized” value in series [8] is on record as 15%. The “Ratio of percent metabolized, Example/Pantoprazole” value in series [2] (90 minutes) came out at 0.27; in series [3] (90 minutes), 0.50; in [4] (90 minutes), 0.73; in series [5] (90 minutes) it was 0.48; in series [6] (90 minutes) it was 0.69; in series [7] (90 minutes) it was 0.28. In series [8] (90 minutes), the “Ratio of percent metabolized, Example/Pantoprazole” value came out at 0.54.

Turning to `COc1ccnc(C[S+]([O-])c2nc3ccc(OC(F)F)cc3[nH]2)c1OC` (stereo not shown) [H-Pantoprazole, 5-difluoromethoxy-2-[(3,4-dimethoxy-2-pyridinyl)methylsulphinyl]-1H-benzimidazole, reference compound], the “Percent of compound metabolized” value was determined as 62% in series [2]; 20% in series [3]; 26% in series [4]; 73% in [5]; 78% in series [6]; 61% in series [7]. Further, the “Percent of compound metabolized” value in [8] worked out at 28%. Besides, the “Substrate concentrations at which formation of M2 appeared to be inhibited” value in series [9] is “above 100 μM”. Further, the “Contribution of CYP2C19 to the oxidative metabolism” value at CYP2C19 is given as “contribute to the oxidative metabolism”. The “Contribution of CYP3A4 to the oxidative metabolism” value at CYP3A4 is “contribute to the oxidative metabolism”.
